Assay results reported in patent US20160280641A1, “Method for refining 2-nito-4-methylsulfonyl benzoic acid and intermediate thereof” (priority 2013, published 2016).

Test: Ames test of mesotrione products
Type: cell-based
Conditions: mesotrione products made from the fine 2-nitro-4-methylsulfonyl benzoic acids obtained by different processes
Description: The fine 2-nitro-4-methylsulfonyl benzoic acids obtained by different processes are transformed into mesotrione products, and activities thereof are tested in Ames tests, wherein Ames responses are negative.

CS(=O)(=O)c1ccc(C(=O)C2C(=O)CCCC2=O)c([N+](=O)[O-])c1 [mesotrione, 2-(4-methanesulfonyl-2-nitrobenzoyl)-1,3-cyclohexanedione]
Ames responses: negative
